The structures appear in SMILES notation. “And” between values parts separate entries of the source, which are not always exact repeats. Identical values can stand only once.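 Step 1: Grow cells in 96-well plates. Step 2: Expose to compound for 48 hours at 5 concentrations. Step 3: Interpolate endpoints linearly; if unreached, use highest concentration. GI50: concentration for 50% inhibition of growth. TGI denotes the concentration required for complete inhibition of growth.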

Some test systems named below: DU-145 prostate; HCC-2998 colon; ACHN renal; CAKI-1 renal; LOX IMVI melanoma; NCI-H23 lung; 786-0 renal; A549 NSCLC.
Test in all cases: NCI tumour cell line growth inhibition, 48 h

Regarding `Oc1ccc(Cl)cc1C(c1cc(Cl)ccc1O)C(Cl)(Cl)Cl`, the GI50 with DU-145 prostate was 1.77 µM; in the assay on HCC-2998 colon, 1.69 µM; with ACHN renal it was 1.76 µM; in the assay on CAKI-1 renal it was 1.97 µM; with LOX IMVI melanoma, 1.66 µM; in the assay on NCI-H23 lung it was 1.73 µM. Further, the GI50 with 786-0 renal is 2 µM; in the assay with A549 NSCLC, 2.68 µM. The TGI in the assay with DU-145 prostate is 3.42 µM; in the assay on HCC-2998 colon, 3.28 µM; in the assay on ACHN renal it was 4.11 µM; in the assay with CAKI-1 renal, 6.06 µM; with LOX IMVI melanoma, 3.22 µM; in the assay on NCI-H23 lung, 3.96 µM. Besides, the results for the TGI in the assay with 786-0 renal and in the assay on A549 NSCLC were 3.99 µM and 8.25 µM, respectively.

`COc1cccc(/C=C/C(=O)c2ccc3cc(OC)ccc3c2)c1`: the GI50 in the assay with DU-145 prostate is 8.54 µM; in the assay with CAKI-1 renal it was 16.4 µM; in the assay with LOX IMVI melanoma, 2.92 µM; in the assay with NCI-H23 lung it was 11.6 µM; in the assay with 786-0 renal it was 10.9 µM; in the assay on A549 NSCLC, 15.5 µM. The TGI in the assay on DU-145 prostate was 17.5 µM; with CAKI-1 renal it was over 50 µM; in the assay with LOX IMVI melanoma it was 14.5 µM; with NCI-H23 lung it was 21 µM; in the assay on 786-0 renal, 19.2 µM; in the assay on A549 NSCLC, 49.4 µM.

For the molecule `C=C1C[C@H]2C=Nc3cc(OCCCOc4cc5c(cc4OC)C(=O)N4CC(=C)C[C@H]4C=N5)c(OC)cc3C(=O)N2C1`, the GI50 in the assay on DU-145 prostate is 0.00496 µM and < 0.0133 µM; with CAKI-1 renal it was 0.0113 µM; in the assay with 786-0 renal, 0.00125 µM; with A549 NSCLC it was 0.0135 µM. Besides, the TGI in the assay with DU-145 prostate is 24 µM; with HCC-2998 colon it was 0.0143 µM; with ACHN renal, 0.0922 µM; with NCI-H23 lung it was 0.0158 µM; in the assay with A549 NSCLC, over 100 µM.

In the case of `CSC1=NC(=Nc2c(C)cccc2C)C2(CCC(C(C)(C)C)CC2)N1c1ccc(Cl)cc1` (configuration not stated), the GI50 was over 100 µM with DU-145 prostate; 92.9 µM in the assay with HCC-2998 colon; 8.4 µM with ACHN renal; 6.59 µM in the assay with CAKI-1 renal; 6.66 µM in the assay on LOX IMVI melanoma; 24.7 µM with NCI-H23 lung. Moreover, the GI50 in the assay with 786-0 renal was 68.7 µM. In addition, the TGI in the assay with DU-145 prostate, with HCC-2998 colon, in the assay on ACHN renal, in the assay on CAKI-1 renal, with LOX IMVI melanoma and in the assay with NCI-H23 lung was over 100 µM in each case. In addition, the TGI in the assay with 786-0 renal is over 100 µM.

In the case of `COc1cnc2c(c1)C(=O)c1c-2n(CCCNC2=NCCS2)c(=O)c2cc(F)ccc12`, the GI50 is 0.144 µM with DU-145 prostate; 12.8 µM with HCC-2998 colon; 0.0496 µM with ACHN renal; 0.111 µM in the assay on LOX IMVI melanoma; 0.22 µM with NCI-H23 lung; 0.271 µM with 786-0 renal. Further, the GI50 in the assay on A549 NSCLC was 0.155 µM. The TGI in the assay with DU-145 prostate was 1.63 µM; in the assay with HCC-2998 colon, 28.6 µM; in the assay on ACHN renal, 1.91 µM; in the assay with LOX IMVI melanoma, 1.12 µM; in the assay with NCI-H23 lung, 1.66 µM; in the assay with 786-0 renal, 1.31 µM. The same molecule showed a TGI in the assay on A549 NSCLC of 1.75 µM.

As to `COc1cccc2c1-c1nc(N)c3c(OC)cccc3c1C2=O`, the TGI in the assay on DU-145 prostate, in the assay on CAKI-1 renal, in the assay on LOX IMVI melanoma, in the assay on NCI-H23 lung, in the assay with 786-0 renal and with A549 NSCLC was over 100 µM in each case.

Consider `O=C(O)C1=C/C(=C(/c2ccccc2)c2cc(C(=O)O)c(O)c3ccccc23)c2ccccc2C1=O`, for which the TGI in the assay with DU-145 prostate, in the assay with HCC-2998 colon, with ACHN renal, in the assay with CAKI-1 renal, with NCI-H23 lung and with 786-0 renal was over 100 µM in each case. In the assay on A549 NSCLC, this molecule yielded a TGI of over 100 µM.

As for `CCOC(=O)c1c(-c2ccccc2)[n+](=O)c2cc(Cl)c(Cl)cc2n1[O-]`, the GI50 was 9.4 µM in the assay with DU-145 prostate; 11.9 µM in the assay with ACHN renal; 1.64 µM in the assay on CAKI-1 renal; 1.56 µM with LOX IMVI melanoma; 10.1 µM with NCI-H23 lung; 1.54 µM in the assay with 786-0 renal. The GI50 in the assay with A549 NSCLC is 15.5 µM. Also, the TGI was 22.9 µM in the assay on DU-145 prostate; 24.2 µM in the assay with ACHN renal; 3.2 µM with CAKI-1 renal; 2.91 µM in the assay with LOX IMVI melanoma; 25.8 µM with NCI-H23 lung; 2.87 µM in the assay on 786-0 renal. The same molecule had a TGI in the assay on A549 NSCLC of 34.4 µM.

Consider `C/C(=N\O)c1ccc2ccc3ccccc3c2c1`, for which the TGI in the assay on DU-145 prostate is over 100 µM; in the assay with ACHN renal, over 100 µM; with CAKI-1 renal, over 100 µM; in the assay with LOX IMVI melanoma, 60.6 µM; in the assay with NCI-H23 lung it was over 100 µM; in the assay on 786-0 renal, over 100 µM. Besides, the TGI in the assay with A549 NSCLC is 79.8 µM.

Consider `C=C1C(=O)O[C@H]2[C@H]1CC/C(COC(=O)c1cc(OC)c(OC)c(OC)c1)=C\CC[C@@]1(C)O[C@@H]21`, for which the GI50 in the assay with DU-145 prostate was 1.23 µM; with HCC-2998 colon, 1.92 µM; in the assay on ACHN renal, 0.743 µM; with LOX IMVI melanoma it was 1.34 µM; in the assay with NCI-H23 lung, 1.7 µM; in the assay with 786-0 renal it was 1.27 µM. Moreover, the GI50 in the assay on A549 NSCLC was 3.05 µM. The TGI in the assay on DU-145 prostate came to 2.47 µM; in the assay with HCC-2998 colon, 3.88 µM; with ACHN renal, 2.02 µM; with LOX IMVI melanoma, 2.73 µM; in the assay on NCI-H23 lung it was 3.95 µM; in the assay with 786-0 renal it was 2.72 µM. The molecule further yielded a TGI in the assay on A549 NSCLC of 12.1 µM.

`COc1cc(-c2cc(/C=C/C(=O)c3ccc(F)c(F)c3)[nH]n2)cc(OC)c1OC`: the GI50 is 3.69 µM with HCC-2998 colon; 3.26 µM in the assay on ACHN renal; 2.98 µM with CAKI-1 renal; 3.18 µM in the assay on LOX IMVI melanoma; 2.6 µM in the assay on NCI-H23 lung; 3.35 µM with 786-0 renal. In addition, in the assay on A549 NSCLC, the GI50 is 2.43 µM. The TGI was 34.1 µM with HCC-2998 colon; over 100 µM in the assay on ACHN renal; over 100 µM in the assay with CAKI-1 renal; 12.2 µM with LOX IMVI melanoma; 8.5 µM with NCI-H23 lung; 15.7 µM in the assay with 786-0 renal. Also, in the assay with A549 NSCLC, the TGI came out at 9.9 µM.
